Some results are limits rather than exact numbers.

Sequence of human ERK-2 (Mitogen Activated Kinase 1) (P28482 8-360): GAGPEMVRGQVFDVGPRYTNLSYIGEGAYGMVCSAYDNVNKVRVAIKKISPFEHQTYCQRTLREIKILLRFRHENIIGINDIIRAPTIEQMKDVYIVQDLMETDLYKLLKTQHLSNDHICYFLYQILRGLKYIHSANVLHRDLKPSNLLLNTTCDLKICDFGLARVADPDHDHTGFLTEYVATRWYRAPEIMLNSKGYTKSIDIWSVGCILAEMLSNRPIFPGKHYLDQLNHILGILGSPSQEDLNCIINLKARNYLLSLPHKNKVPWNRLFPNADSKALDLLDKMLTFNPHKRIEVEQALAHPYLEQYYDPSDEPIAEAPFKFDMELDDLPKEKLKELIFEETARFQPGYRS

This test concerns the target human ERK-2 (Mitogen Activated Kinase 1) (Homo sapiens (Human), UniProt P28482). Briefly: ERK-2 Enzymatic Assay. Format: biochemical. Particulars: human ERK-2 enzyme 5 nM, 25 μM ATP, S/T17 peptide substrate; isomer = configuration of CR2R3. The procedure: Compounds were tested in an enzymatic assay using human ERK-2 (Mitogen Activated Kinase 1), recombinantly expressed as an n-terminal 6-His fusion protein in E. coli and corresponding to aa 8-360. […] Test compounds were diluted in DMSO in 3-fold serial dilutions at 100× final concentrations. […] The data collected from each well was fit to a straight line, and the resulting rates were used to calculate percent of control. Percent of control was plotted against compound concentration, and IC50 values were determined using a four-parameter fit.
In the case of `Cn1nccc1Nc1nccc(-c2cc3n4c(nnc4c2)[C@@H](Cc2ccc(F)cc2)CO3)n1` [(R) I-44, 4-(3-(4-fluorobenzyl)-3,4-dihydro-5-oxa-1,2,2a^1-triazaacenaphthylen-7-yl)-N-(1-methyl-1H-pyrazol-5-yl)pyrimidin-2-amine], the IC50 is < 0.02 nM. Under `CC(C)C[C@H]1COc2cc(-c3ccnc(Nc4ccnn4C)n3)cc3nnc1n23` [(R) I-45, 4-(3-isobutyl-3,4-dihydro-5-oxa-1,2,2a^1-triazaacenaphthylen-7-yl)-N-(1-methyl-1H-pyrazol-5-yl)pyrimidin-2-amine] stands < 0.02 nM. The figure for `COc1ccc(C[C@H]2COc3cc(-c4ccnc(Nc5ccnn5C)n4)cc4nnc2n34)cc1F` [(R) I-46, 4-(3-(3-fluoro-4-methoxybenzyl)-3,4-dihydro-5-oxa-1,2,2a^1-triazaacenaphthylen-7-yl)-N-(1-methyl-1H-pyrazol-5-yl)pyrimidin-2-amine] is < 0.02 nM; for `Cn1nccc1Nc1cc(-c2cc3n4c(nnc4c2)[C@@H](Cn2cc(Cl)cn2)CCO3)ccn1` [(R) I-47, 4-(9-((4-chloro-1H-pyrazol-1-yl)methyl)-8,9-dihydro-7H-6-oxa-1,2,2a^1-triazabenzo[cd]azulen-4-yl)-N-(1-methyl-1H-pyrazol-5-yl)pyridin-2-amine] it is < 0.02 nM. Consider `Cn1nccc1Nc1cc(-c2cc3n4c(nnc4c2)[C@@H](Cc2ccc(Cl)cc2)CO3)ccn1` [(R) I-48, 4-(3-(4-chlorobenzyl)-3,4-dihydro-5-oxa-1,2,2a^1-triazaacenaphthylen-7-yl)-N-(1-methyl-1H-pyrazol-5-yl)pyridin-2-amine], for which the IC50 is < 0.02 nM. With `COc1ccc(C[C@H]2COc3cc(-c4ccnc(Nc5ccnn5C)n4)cc4nnc2n34)cc1` [(R) I-50, 4-(3-(4-methoxybenzyl)-3,4-dihydro-5-oxa-1,2,2a^1-triazaacenaphthylen-7-yl)-N-(1-methyl-1H-pyrazol-5-yl)pyrimidin-2-amine], the IC50 stood at 0.02 nM. The figure for `Cn1nccc1Nc1cc(-c2cc3n4c(nnc4c2)[C@@H](Cc2ccc(F)c(F)c2)CO3)ccn1` [(R) I-54, 4-(3-(3,4-difluorobenzyl)-3,4-dihydro-5-oxa-1,2,2a^1-triazaacenaphthylen-7-yl)-N-(1-methyl-1H-pyrazol-5-yl)pyridin-2-amine] is 0.03 nM. On to `Cn1nccc1Nc1nccc(-c2cc3n4c(nnc4c2)[C@@H](Cn2cc(C4CC4)cn2)CCO3)n1` [(R) I-56, 4-(9-((4-cyclopropyl-1H-pyrazol-1-yl)methyl)-8,9-dihydro-7H-6-oxa-1,2,2a^1-triazabenzo[cd]azulen-4-yl)-N-(1-methyl-1H-pyrazol-5-yl)pyrimidin-2-amine], for which the IC50 was < 0.02 nM. The figure for `Cn1nccc1Nc1nccc(-c2cc3n4c(nnc4c2)[C@H](Cc2ccc(F)cc2)CCO3)n1` [(R) I-58, 4-(9-(4-fluorobenzyl)-8,9-dihydro-7H-6-oxa-1,2,2a^1-triazabenzo[cd]azulen-4-yl)-N-(1-methyl-1H-pyrazol-5-yl)pyrimidin-2-amine] is < 0.02 nM. The figure for `COc1ccc(C[C@@H]2CC(=O)N(C)c3cc(-c4ccnc(Nc5ccnn5C)n4)cc4nnc2n34)cc1` [(R) I-62, 9-(4-methoxybenzyl)-6-methyl-4-(2-((1-methyl-1H-pyrazol-5-yl)amino)pyrimidin-4-yl)-8,9-dihydro-1,2,2a^1,6-tetraazabenzo[cd]azulen-7(6H)-one] is < 0.02 nM; for `CCC[C@@H]1CC(=O)N(C)c2cc(-c3ccnc(Nc4ccnn4C)n3)cc3nnc1n23` [(R) I-64, 6-methyl-4-(2-((1-methyl-1H-pyrazol-5-yl)amino)pyrimidin-4-yl)-9-propyl-8,9-dihydro-1,2,2a^1,6-tetraazabenzo[cd]azulen-7(6H)-one] it is 183 nM. In turn, `CN1C(=O)C[C@H](C2CC2)c2nnc3cc(-c4ccnc(Nc5ccnn5C)n4)cc1n23` [(R) I-65, 9-cyclopropyl-6-methyl-4-(2-((1-methyl-1H-pyrazol-5-yl)amino)pyrimidin-4-yl)-8,9-dihydro-1,2,2a^1,6-tetraazabenzo[cd]azulen-7(6H)-one] gave an IC50 of 0.66 nM.

Compound `Cn1nccc1Nc1nccc(-c2cc3n4c(nnc4c2)[C@H](Oc2ccc(F)cc2)CCO3)n1` [(R) I-66, 4-(9-(4-fluorophenoxy)-8,9-dihydro-7H-6-oxa-1,2,2a^1-triazabenzo[cd]azulen-4-yl)-N-(1-methyl-1H-pyrazol-5-yl)pyrimidin-2-amine] displayed an IC50 of 2.95 nM.

In turn, `CN1C(=O)C[C@H](CC(F)(F)F)c2nnc3cc(-c4ccnc(Nc5ccnn5C)n4)cc1n23` [(R) I-71, 6-methyl-4-(2-((1-methyl-1H-pyrazol-5-yl)amino)pyrimidin-4-yl)-9-(2,2,2-trifluoroethyl)-8,9-dihydro-1,2,2a^1,6-tetraazabenzo[cd]azulen-7(6H)-one] registered an IC50 of 0.655 nM. The figure for `COc1ccc(C[C@@H]2CC(=O)N(C)c3cc(-c4ccnc(Nc5ccnn5C)c4)cc4nnc2n34)c(F)c1` [(R) I-74, 9-(2-fluoro-4-methoxybenzyl)-6-methyl-4-(2-((1-methyl-1H-pyrazol-5-yl)amino)pyridin-4-yl)-8,9-dihydro-1,2,2a^1,6-tetraazabenzo[cd]azulen-7(6H)-one] is < 0.02 nM. Under `CC(C)C[C@@H]1CC(=O)N(C)c2cc(-c3ccnc(Nc4ccnn4C)c3)cc3nnc1n23` [(R) I-75, 9-isobutyl-6-methyl-4-(2-((1-methyl-1H-pyrazol-5-yl)amino)pyridin-4-yl)-8,9-dihydro-1,2,2a^1,6-tetraazabenzo[cd]azulen-7(6H)-one] stands 3.22 nM; under `Cn1nccc1Nc1nccc(-c2cc3n4c(nnc4c2)[C@H](Oc2cncc(Cl)c2)CCO3)n1` [(R) I-77, 4-(9-((5-chloropyridin-3-yl)oxy)-8,9-dihydro-7H-6-oxa-1,2,2a^1-triazabenzo[cd]azulen-4-yl)-N-(1-methyl-1H-pyrazol-5-yl)pyrimidin-2-amine], 0.311 nM; under `Cn1nccc1Nc1cc(-c2cc3n4c(nnc4c2)[C@H](Oc2cncc(Cl)c2)CCO3)ccn1` [(R) I-78, 4-(9-((5-chloropyridin-3-yl)oxy)-8,9-dihydro-7H-6-oxa-1,2,2a^1-triazabenzo[cd]azulen-4-yl)-N-(1-methyl-1H-pyrazol-5-yl)pyridin-2-amine], 4.61 nM. The figure for `Cn1nccc1Nc1nccc(-c2cc3n4c(nnc4c2)[C@@H](Cc2ccc(F)c(Cl)c2)CO3)n1` [(R) I-82, 4-(3-(3-chloro-4-fluorobenzyl)-3,4-dihydro-5-oxa-1,2,2a^1-triazaacenaphthylen-7-yl)-N-(1-methyl-1H-pyrazol-5-yl)pyrimidin-2-amine] is 0.6 nM; for `CN1C(=O)C[C@@H](Cc2ccc(Cl)cn2)c2nnc3cc(-c4ccnc(Nc5ccnn5C)n4)cc1n23` [(R) I-84, 9-((5-chloropyridin-2-yl)methyl)-6-methyl-4-(2-((1-methyl-1H-pyrazol-5-yl)amino)pyrimidin-4-yl)-8,9-dihydro-1,2,2a^1,6-tetraazabenzo[cd]azulen-7(6H)-one] it is 0.102 nM; for `COc1ccc(C[C@@H]2CC(=O)N(C)c3cc(-c4ccnc(Nc5ccnn5C)n4)cc4nnc2n34)c(F)c1` [(R) I-85, 9-(2-fluoro-4-methoxybenzyl)-6-methyl-4-(2-((1-methyl-1H-pyrazol-5-yl)amino)pyrimidin-4-yl)-8,9-dihydro-1,2,2a^1,6-tetraazabenzo[cd]azulen-7(6H)-one] it is < 0.02 nM. Compound `CC(C)[C@H]1CC(=O)N(C)c2cc(-c3ccnc(Nc4ccnn4C)c3)cc3nnc1n23` [(R) I-87, 9-isopropyl-6-methyl-4-(2-((1-methyl-1H-pyrazol-5-yl)amino)pyridin-4-yl)-8,9-dihydro-1,2,2a^1,6-tetraazabenzo[cd]azulen-7(6H)-one] had an IC50 of 6.94 nM. Under `Cn1nccc1Nc1nccc(-c2cc3n4c(nnc4c2)[C@@H](Cc2cccc(Cl)c2)CO3)n1` [(R) I-88, 4-(3-(3-chlorobenzyl)-3,4-dihydro-5-oxa-1,2,2a^1-triazaacenaphthylen-7-yl)-N-(1-methyl-1H-pyrazol-5-yl)pyrimidin-2-amine] stands < 0.02 nM; under `Cn1nccc1Nc1cc(-c2cc3n4c(nnc4c2)[C@@H](Cn2cc(C(F)(F)F)cn2)CCO3)ccn1` [(R) I-89, N-(1-methyl-1H-pyrazol-5-yl)-4-(9-((4-(trifluoromethyl)-1H-pyrazol-1-yl)methyl)-8,9-dihydro-7H-6-oxa-1,2,2a^1-triazabenzo[cd]azulen-4-yl)pyridin-2-amine], < 0.02 nM; under `Cn1nccc1Nc1nccc(-c2cc3n4c(nnc4c2)[C@H](Oc2ccccc2)CCO3)n1` [(R) I-90, N-(1-methyl-1H-pyrazol-5-yl)-4-(9-phenoxy-8,9-dihydro-7H-6-oxa-1,2,2a^1-triazabenzo[cd]azulen-4-yl)pyrimidin-2-amine], 0.942 nM.

`Cn1nccc1Nc1nccc(-c2cc3n4c(nnc4c2)[C@H](Oc2cncc(F)c2)CCO3)n1` [(R) I-91, 4-(9-((5-fluoropyridin-3-yl)oxy)-8,9-dihydro-7H-6-oxa-1,2,2a^1-triazabenzo[cd]azulen-4-yl)-N-(1-methyl-1H-pyrazol-5-yl)pyrimidin-2-amine] yielded an IC50 of 25.8 nM. The figure for `Cc1cc(C[C@H]2CCOc3cc(-c4ccnc(Nc5ccnn5C)n4)cc4nnc2n34)on1` [(R) I-93, N-(1-methyl-1H-pyrazol-5-yl)-4-(9-((3-methylisoxazol-5-yl)methyl)-8,9-dihydro-7H-6-oxa-1,2,2a^1-triazabenzo[cd]azulen-4-yl)pyrimidin-2-amine] is < 0.02 nM; for `COc1cccc(C[C@H]2COc3cc(-c4ccnc(Nc5ccnn5C)c4)cc4nnc2n34)c1` [(R) I-97, 4-(3-(3-methoxybenzyl)-3,4-dihydro-5-oxa-1,2,2a^1-triazaacenaphthylen-7-yl)-N-(1-methyl-1H-pyrazol-5-yl)pyridin-2-amine] it is < 0.02 nM.

One may read the IC50 as the concentration that gives 50% inhibition. Low values mean greater potency in that assay, high ones weaker potency in that assay.

For the origin of these results see US9867833B2, “Serine/threonine kinase inhibitors” (GENENTECH, INC., priority 2013, dated 2018).
